# Assay results from article PMC7994357, “Gene Expression, Biochemical Characterization of a sn-1, 3 Extracellular Lipase From Aspergillus niger GZUF36 and Its Model-Structure Analysis” (Frontiers in Microbiology, 2021).
# Molecular target: T1, PEXANL1 (Aspergillus niger, UniProt A0A5C2GD86)
# T1 construct: mature peptide (278 residues of 297, signal peptide removed), extra N-terminal residues, C-terminal 6xHis kept; secreted from Pichia pastoris GS115 (pPIC9K, codon-optimised), Ni-NTA purified, Endo Hf deglycosylated
# T1 sequence (A0A5C2GD86 20-297): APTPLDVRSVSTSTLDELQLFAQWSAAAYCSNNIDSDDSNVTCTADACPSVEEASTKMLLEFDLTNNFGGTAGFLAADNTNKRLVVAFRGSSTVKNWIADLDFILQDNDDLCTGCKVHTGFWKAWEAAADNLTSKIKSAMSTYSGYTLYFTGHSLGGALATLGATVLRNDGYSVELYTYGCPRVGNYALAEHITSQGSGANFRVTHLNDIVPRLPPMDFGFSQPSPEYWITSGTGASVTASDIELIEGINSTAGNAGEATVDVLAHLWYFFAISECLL
# Assay: ultrasound-assisted solvent-free esterification, HPLC of glycerides
# Type: biochemical
# Conditions: 40 °C, ultrasound 200 W, 40 kHz
SMILES,"ultrasound-assisted solvent-free esterification, HPLC of glycerides (co-substrate oleic acid (glycerol to oleic acid 5:1 molar))","ultrasound-assisted solvent-free esterification, HPLC of glycerides (co-substrate glycerol (glycerol to oleic acid 5:1 molar))"
OCC(O)CO [glycerol],Ultrasound-assisted esterification of oleic acid (OA) with glycerol was studied,
CCCCCCCC/C=C\CCCCCCCC(=O)O [oleic acid],,Ultrasound-assisted esterification of oleic acid (OA) with glycerol was studied
